# Laboratory results from US20040131648A1, “Nuclear hormone receptor compounds, products and methods employing same” (The Procter & Gamble Company, priority 2002, published 2004).
# Test system: area of the skin in need of beautifying
# Test: Topical administration of beta-ionol analog to human skin
# Assay type: in vivo
# Settings: daily treatments, after two weeks
# Experimental: A Beta-ionol analog, melafleur alcohol, is administered topically to a human directly onto an area of the skin in need of beautifying.
smiles,measurement,value
"CC1(C)CCCC2=C1CC(CO)CC2 (stereo not shown) [melafleur alcohol, 2-Naphthalenemethanol, 1,2,3,4,5,6,7,8-octahydro-8,8-dimethyl-]",health and vitality of treated areas of the skin,increased health and vitality
